# What was measured:
# Plasmodium falciparum [1] = assay: MMV: Inhibition of Plasmodium falciparum 3D7 (EC50).; assay type: functional, organism-based
# Plasmodium falciparum [2] = assay: MMV: Inhibition of Plasmodium falciparum 3D7 at 5uM compound concentration.; assay type: functional
# [3] = MMV: Cytotoxicity against human fibroblasts (MRC-5) cells.; settings: MRC-5 cells (human fibroblasts)
# Leishmania infantum = assay: MMV: Inhibition of Leishmania infantum (MHOM/MA/BE/67) in vitro.; assay type: functional, organism-based
# [4] = tested on: Trypanosoma brucei rhodesiense; assay: MMV: Inhibition of Trypanosoma brucei rhodesiense (STIB 900) (HAT in vitro).; assay type: functional, organism-based
# Plasmodium falciparum [5] = assay: MMV: Inhibition of Plasmodium falciparum K1 (EC50).; assay type: functional, organism-based
# Trypanosoma cruzi = assay: MMV: Inhibition of Trypanosoma cruzi (Tulahuen C4 LacZ) (Chagas in vitro).; assay type: functional, organism-based
# [6] = tested on: Trypanosoma brucei brucei; assay: MMV: Inhibition of Trypanosoma brucei brucei (Squib 427) (HAT in vitro).; assay type: functional, organism-based
Structure (SMILES),EC50 (Plasmodium falciparum [1]) [µM],inhibition at 5 µM (Plasmodium falciparum [2]) [%],IC50 [3] [µM],IC50 (Leishmania infantum) [µM],IC50 [4] [µM],EC50 (Plasmodium falciparum [5]) [µM],IC50 (Trypanosoma cruzi) [µM],IC50 [6] [µM]
O=C(CCc1ccccc1)c1ccccc1OCC(O)CN1CCCCC1 (stereo not given),0.676,97,> 32,17.3,4.7,0.182,16.9,16.1
COc1ccc(-n2ccnc2SCC(=O)Nc2cc(C)ccc2C)c(OC)c1,0.17,95,> 32,> 32,21,0.388,24.4,> 32
COc1ccc(N2CCN(C(CNC(=O)C3CCCCC3)c3ccc4c(c3)OCO4)CC2)cc1 (stereo not given),1.11,97,> 32,> 32,22.5,0.986,25.9,> 32
COC(=O)c1ccc(C2C3=C(O)CC(c4ccc(F)cc4)CC3=Nc3ccccc3N2C(=O)c2ccccc2)cc1 (stereo not given),0.327,98,> 32,1.59,1.72,0.724,> 32,4.18
Cn1c(=O)c2cc(C(=O)NCCCN3CCCCCC3)sc2c2ccccc21,0.669,97,> 32,> 32,17.4,0.576,> 32,> 32
Cc1sc2ncnc(Sc3nc4ccccc4[nH]3)c2c1C,0.615,100,> 32,> 32,> 32,0.582,> 32,> 32
CCOc1cc2c(cc1OCC)C(c1cc(OC)c(O)cc1Cl)NCC2 (stereo not given),0.37,98,> 32,> 32,16.2,0.114,14.6,15.2
Oc1ccccc1CN1CCN(C(c2ccccc2)c2ccccc2)CC1,0.611,97,> 32,11.9,12.5,0.203,4.1,15.6
c1ccc2c(NCCCCCCNc3c4c(nc5ccccc35)CCCC4)c3c(nc2c1)CCCC3,0.376,100,4.06,1.01,0.794,1.35,1.19,1.02
CCC1(C)CC(CCNCc2ccccc2O)(c2ccc(C)cc2)CCO1 (stereo not given),0.142,97,16.1,4.32,1.01,0.0372,15.7,3.05
OC(CNC1CCCCC1)Cn1c2ccccc2c2ccccc21 (stereo not given),0.293,93,> 32,16.6,4.03,1.17,> 32,4.15
O=C(NC1CCN(Cc2ccccc2)CC1)c1cc(C(=O)NC2CCN(Cc3ccccc3)CC2)cc(C(=O)NC2CCN(Cc3ccccc3)CC2)c1,0.646,98,> 32,4.06,2.84,0.928,25.1,4.06
O=C1c2ccc3c4c(ccc(c24)C(=O)N1CCCCO)C(=O)N(CCCCO)C3=O,0.795,97,13.8,1.01,1,0.858,2.07,2.84
CCN(Cc1ccccc1)C1CCN(Cc2cc(Br)ccc2O)CC1,0.625,97,> 32,16,11.4,0.187,11.8,10.9
Cc1ccc(C)c(Cn2c(N3CCC(C(=O)NCc4cccs4)CC3)nc3ccccc32)c1,1.33,97,> 32,17.3,3.86,1.67,8.64,6.9
CC1CCN(Cc2c(O)ccc3cc(-c4nc5ccccc5s4)c(=O)oc23)CC1,1.13,91,23.2,19,< 0.125,0.47,18,18.4
Clc1cc(Br)ccc1-c1ccc(CNCC2CCNCC2)o1,0.8,96,4.03,1,< 0.125,1.62,1.01,< 0.125
COc1ccc(C2C(C(=O)Nc3cccc(OC)c3)c3ccccc3C(=O)N2C2CCCCC2)cc1 (stereo not given),1.18,97,> 32,6.35,3.7,1.6,15.6,4.06
CN1C=C(c2ccc3ccccc3n2)C(c2c[nH]c3ccccc23)c2ccccc21 (stereo not given),0.552,95,> 32,16.2,0.979,1.06,0.934,3.77
COc1ccccc1CNC(=O)CCn1c(=O)[nH]c2ccsc2c1=O,0.14,67,> 32,> 32,> 32,0.15,> 32,> 32
O=C(Nc1ccc(N2CCCCC2)c(Cl)c1)c1ccc(Br)o1,0.735,96,26.8,> 32,13.6,1.45,14.9,15.1
CCOC(=O)C1CCN(C(=O)CN2C(=O)c3ccccc3C2c2c[nH]c3ccccc23)CC1 (stereo not given),1.18,98,> 32,> 32,13.8,2.67,14.7,16.1
CCN(CC)S(=O)(=O)c1ccc(-c2csc(Nc3ccc(C)c(C)c3)n2)cc1,0.641,97,> 32,16.2,> 32,1.04,> 32,> 32
CC(C)(C)c1ccc(C2CC3=Nc4ccccc4N(C(=O)c4ccccc4Cl)C(c4ccc(F)cc4)C3=C(O)C2)cc1 (stereo not given),0.947,96,> 32,17.3,1.11,0.824,> 32,4.25
CCCCc1c(CCC)c(=N)c2ccccc2n1C,0.716,77,19.3,6.35,3.92,1.58,0.375,4
